One substance from publication PMC3425544, “The S100A10 Subunit of the Annexin A2 Heterotetramer Facilitates L2-Mediated Human Papillomavirus Infection” (PLoS ONE, 2012) can be followed below.

The test system of the assay is Bovine Serum Albumin (BSA). The assay can be described thus: EPR binding of L2 peptide to BSA (specificity control). The note with it: 20 µM peptide, 100 µM BSA. The text has this:
The L2_108–126 peptides used in our EPR studies were synthesized with a cysteine at the N-terminus, and followed by a spacer of 3 physiological amino acids (C-IVS) preceding the canonical L2_108–126 and L2 scrambled sequences (C-IVS-LVEETSFIDAGAPTSVPSI and C-IVS-IESPVSDTALGTPEIFVSA respectively). Peptides were combined with 8× molar excess paramagnetic label (1-oxyl-2, 2, 5, 5-tetramethyl-Δ3-pyrroline-3-methyl) (R1) methanethiosulfonate (MTSL), (Toronto Research Chemicals, Canada) and left to react overnight at 4°C. Free label was removed by gel filtration (PD10 GE, United Kingdom). All peptides were solubilized into HEPES buffer. […] Binding interactions were examined by combining paramagnetically-labeled L2 peptide with A2t, BSA, ANXA2, or S100A10 (20 µM, 100 µM, 100 µM, 100 µM, and 100 µM respectively) in 10 µL volumes of the HEPES buffer, confined by glass capillaries, and measured at room temperature over a period of 24 hours using a Bruker EMX X-band EPR spectrometer. […] To quantify the amount of bound peptide spectra of all tested proteins in combination with the L2_108–126 or ScrL2 peptides were compared to the spectra of L2_108–126 or ScrL2 peptides alone in solution using a spectra analyzing software (EPR 130, University of California, Los Angeles). […]

For the substance “C-IVS-LVEETSFIDAGAPTSVPSI [L2_108–126, HPV16 L2 aa 108–126 peptide with N-terminal cysteine and IVS spacer]”, the “binding to BSA” value was “does not bind BSA in a significant manner”.
